Test results: patent publication US11505548B2, “Heterocyclic compounds and their use for treatment of helminthic infections and diseases” (Celgene Corporation, priority 2019, dated 2022)
Read-outs that look alike come from different tables or passages of the source.

Tested on: Onchocerca gutturosa Adult Male Worms
Experiment: Onchocerciasis in vitro screening model, worm motility score
Assay type: cell-based
Conditions: read-out: O. gutturosa activity level (IC50 or MED)
[1] = in vitro, Onchocerca gutturosa adult male worms, class A/B/C
[2] = Onchocerca gutturosa, Table 1 O. gutturosa, levels A/B/C, motility or MTT readout not specified

IC50 [2] [nM]	SMILES	IC50 [1] [nM]
	O=C1CCCN1c1cccnc1Nc1nc(-c2ccc(NC34CC(C3)C4)cn2)ns1 [Compound 204, 1-(2-(3-(5-(bicyclo [1.1.1]pentan-1-ylamino)pyridin-2-yl)-1,2,4-thiadiazol-5-ylamino)pyridin-3-yl)pyrrolidin-2-one]	500 to 5000
	CC(C)Oc1cnc(-c2nsc(Nc3ncccc3C(=O)N(C)C)n2)cc1C(F)(F)F [Compound 225, 2-(3-(5-isopropoxy-4-(trifluoromethyl)pyridin-2-yl)-1,2,4-thiadiazol-5-ylamino)-N,N-dimethyl-nicotinamide]	500 to 5000
< 200	CC(C)c1cccnc1Nc1nc(-c2cc(C(F)(F)F)c(OC3CC3)cn2)ns1 [Compound 109, 3-(5-cyclopropoxy-4-(trifluoromethyl)pyridin-2-yl)-N-(3-isopropyl-pyridin-2-yl)-1,2,4-thiadiazol-5-amine]	
	COc1ccc(Nc2nnc(-c3cc(OC(C)C)ccn3)o2)nc1 [Compound 212, 5-(4-isoprop-oxypyridin-2-yl)-N-(5-methoxy-pyridin-2-yl)-1,3,4-oxadiazol-2-amine]	500 to 5000
500 to 5000	CC(C)Oc1ccc(-c2nsc(N(C)c3ncccc3N(C)C)n2)nc1 [Compound 139, N2-(3-(5-isoprop-oxypyridin-2-yl)-1,2,4-thiadiazol-5-yl)-N2,N3,N3-trimethylpyridine-2,3-diamine]	
	CC(C)Oc1ccc(-c2nsc(Nc3ncc(C(F)(F)F)cc3N3CCCC3=O)n2)nc1 [Compound 312, 1-(2-(3-(5-isopropoxypyridin-2-yl)-1,2,4-thiadiazol-5-ylamino)-5-(trifluoromethyl)pyridin-3-yl)pyrrolidin-2-one]	500 to 5000
500 to 5000	Cc1cccnc1Nc1nc(-c2ccc3c(n2)CN(CC2CC2)C3)ns1 [Compound 114, 3-(6-(cyclo-propylmethyl)-6,7-dihydro-5H-pyrrolo[3,4-b]pyridin-2-yl)-N-(3-methylpyridin-2-yl)-1,2,4-thiadiazol-5-amine]	
	Cc1ccnc(Nc2nnc(-c3ncccc3C)s2)c1 [Compound 244, 5-(3-methyl-pyridin-2-yl)-N-(4-methyl-pyridin-2-yl)-1,3,4-thiadiazol-2-amine]	500 to 5000
	CC(=O)N(C)c1cc(C(F)F)cnc1Nc1nc(-c2cc3c(cn2)N(C)CC3)ns1 [Compound 330, N-(5-(difluoro-methyl)-2-(3-(1-methyl-2,3-dihydro-1H-pyrrolo[2,3-c]pyridin-5-yl)-1,2,4-thiadiazol-5-ylamino)pyridin-3-yl)-N-methylacetamide]	500 to 5000
200 to 500	CN(C)c1cccnc1Nc1nc(-c2ncccc2OC2CC2)ns1 [Compound 117, N2-(3-(3-cycloprop-oxypyridin-2-yl)-1,2,4-thiadiazol-5-yl)-N3,N3-dimethyl-pyridine-2,3-diamine]	
500 to 5000	Cc1cccnc1Nc1nnc(-c2ccc(OC3CCN(C)CC3)cn2)s1 [Compound 63, 5-(5-(1-methyl-piperidin-4-yloxy)pyridin-2-yl)-N-(3-methylpyridin-2-yl)-1,3,4-thiadiazol-2-amine]	
500 to 5000	Cc1cccnc1Nc1nc(-c2cc(C(=O)N(C)C)ccn2)ns1 [Compound 22, N,N-dimethyl-2-(5-(3-methylpyridin-2-ylamino)-1,2,4-thiadiazol-3-yl)isonicotinamide]	
	CC(=O)N(C)c1cc(C(F)(F)F)cnc1Nc1nc(-c2cc3c(cn2)OC(C)(C)C3)ns1 [Compound 272, N-(2-(3-(2,2-dimethyl-2,3-dihydrofuro [2,3-c]pyridin-5-yl)-1,2,4-thiadiazol-5-ylamino)-5-(trifluoromethyl)pyridin-3-yl)-N-methylacetamide]	200 to 500
	CC(=O)N(C)c1cccnc1Nc1nc(-c2cc3c(cn2)N(C)CC3)ns1 [Compound 202, N-methyl-N-(2-(3-(1-methyl-2,3-dihydro-1H-pyrrolo[2,3-c]pyridin-5-yl)-1,2,4-thiadiazol-5-ylamino)pyridin-3-yl)acetamide]	200 to 500
500 to 5000	CC(C)Oc1cnc(-c2nnc(Nc3ncccc3N(C)C)o2)cc1C(F)(F)F [Compound 160, N2-(5-(5-isopropoxy-4-(trifluoromethyl)pyridin-2-yl)-1,3,4-oxadiazol-2-yl)-N3,N3-dimethyl-pyridine-2,3-diamine]	
500 to 5000	Cc1cccnc1Nc1nc(-c2ccc(S(=O)(=O)N(C)C)cn2)ns1 [Compound 31, N,N-dimethyl-6-(5-(3-methylpyridin-2-ylamino)-1,2,4-thiadiazol-3-yl)pyridine-3-sulfonamide]	
	CC(=O)N(C)c1cccnc1Nc1nc(-c2cc3c(cn2)OC(C)(C)C3)ns1 [Compound 271, N-(2-(3-(2,2-dimethyl-2,3-dihydrofuro [2,3-c]pyridin-5-yl)-1,2,4-thiadiazol-5-ylamino)pyridin-3-yl)-N-methylacetamide]	500 to 5000
< 200	CN1CCC(Oc2ccc(-c3nsc(Nc4ncccc4F)n3)nc2)CC1 [Compound 30, N-(3-fluoro-pyridin-2-yl)-3-(5-(1-methyl-piperidin-4-yloxy)pyridin-2-yl)-1,2,4-thiadiazol-5-amine]	
	CC(=O)N(C)c1cnc(Nc2n[nH]c(-c3cc4c(cn3)N(C(C)C)CC4)n2)c(C(F)(F)F)c1 [Compound 294, N-(6-(5-(1-isopropyl-2,3-dihydro-1H-pyrrolo[2,3-c]pyridin-5-yl)-1H-1,2,4-triazol-3-ylamino)-5-(trifluoromethyl)pyridin-3-yl)-N-methylacetamide]	500 to 5000
500 to 5000	FC(F)(F)c1ccnc(-c2nsc(Nc3cc(N4CCCC4)ccn3)n2)c1 [Compound 99, N-(4-(pyrrolidin-1-yl)pyridin-2-yl)-3-(4-(trifluoromethyl)pyridin-2-yl)-1,2,4-thiadiazol-5-amine]	
	CC(C)Oc1cnc(-c2nsc(Nc3ncccc3C(C)C)n2)cc1C(N)=O [Compound 198, 5-isopropoxy-2-(5-(3-isopropylpyridin-2-ylamino)-1,2,4-thiadiazol-3-yl)isonicotin-amide]	500 to 5000
500 to 5000	O=C(NCC1CC1)c1ccc(Nc2nc(-c3ccc(OC4CC4)cn3)ns2)nc1 [Compound 106, 6-(3-(5-cyclo-propoxypyridin-2-yl)-1,2,4-thiadiazol-5-ylamino)-N-(cyclopropyl-methyl) nicotinamide]	
	Cc1ccnc(Nc2nc(-c3ncccc3C)ns2)c1 [Compound 238, 3-(3-methyl-pyridin-2-yl)-N-(4-methyl-pyridin-2-yl)-1,2,4-thiadiazol-5-amine]	< 200
	CC(=O)N(C)c1cccnc1Nc1nc(-c2cc(C)ccn2)ns1 [Compound 208, N-methyl-N-(2-(3-(4-methylpyridin-2-yl)-1,2,4-thiadiazol-5-ylamino)pyridin-3-yl)acetamide]	500 to 5000
< 200	Cc1cccnc1Nc1nc(-c2ccc(OC3CC3)cn2)n(C)n1 [Compound 103, N-(5-(5-cyclopropoxy-pyridin-2-yl)-1-methyl-1H-1,2,4-triazol-3-yl)-3-methyl-pyridin-2-amine]	
	CC(C)Oc1ccc(-c2nsc(Nc3ncccc3S(=O)(=O)N(C)C)n2)nc1 [Compound 321, 2-(3-(5-isoprop-oxypyridin-2-yl)-1,2,4-thiadiazol-5-ylamino)-N,N-dimethyl-pyridine-3-sulfonamide]	500 to 5000

SMILES	IC50 [2] [nM]	IC50 [1] [nM]
CC(C)Oc1cnc(-c2nsc(Nc3ncccc3C(C)C)n2)cc1C(F)(F)F [Compound 168, 3-(5-isoprop-oxy-4-(trifluoromethyl)pyridin-2-yl)-N-(3-isopropyl-pyridin-2-yl)-1,2,4-thiadiazol-5-amine]	< 200	
CC(C)c1cnc(Nc2nc(-c3ncccc3OC3CC3)ns2)cc1C(F)(F)F [Compound 97, 3-(3-cycloprop-oxypyridin-2-yl)-N-(5-isopropyl-4-(trifluoromethyl)pyridin-2-yl)-1,2,4-thiadiazol-5-amine]	< 200	
c1ccc(-c2nsc(Nc3ccc(N4CCCCC4)cn3)n2)nc1 [Cmpd 6, N-(5-(piperidin-1-yl)pyridin-2-yl)-3-(pyridin-2-yl)-1,2,4-thiadiazol-5-amine]	< 200	
Cc1cccnc1Nc1nc(-c2ccc(OC3CCOCC3)cn2)ns1 [Compound 15, N-(3-methyl-pyridin-2-yl)-3-(5-(tetrahydro-2H-pyran-4-yloxy)pyridin-2-yl)-1,2,4-thiadiazol-5-amine]	< 200	
COc1ccnc(-c2nsc(Nc3ccc(C(C)C)cn3)n2)c1 [Compound 177, N-(5-isopropyl-pyridin-2-yl)-3-(4-methoxy-pyridin-2-yl)-1,2,4-thiadiazol-5-amine]	< 200	
CC(C)Oc1ccc(-c2nsc(Nc3nccnc3N(C)C)n2)nc1 [Compound 144, N2-(3-(5-isoprop-oxypyridin-2-yl)-1,2,4-thiadiazol-5-yl)-N3,N3-dimethyl-pyrazine-2,3-diamine]	200 to 500	
CC(C)Oc1cnc(-c2nsc(Nc3ncccc3N(C)C(=O)C3CC3)n2)cc1C(F)(F)F [Compound 186, N-(2-(3-(5-isopropoxy-4-(trifluoro-methyl)pyridin-2-yl)-1,2,4-thiadiazol-5-ylamino)pyridin-3-yl)-N-methylcyclo-propanecarbox-amide]	500 to 5000	
Cc1cccnc1Nc1nc(-c2ccc(O[C@@H]3CCN(C4CC4)C[C@H]3F)cn2)ns1 [Compound 91, 3-(5-((3R,4R)-1-cyclopropyl-3-fluoro-piperidin-4-yloxy)pyridin-2-yl)-N-(3-methylpyridin-2-yl)-1,2,4-thiadiazol-5-amine]	< 200	
CC(C)c1cccnc1Nc1nc(-c2ccc(OC3CC3)cn2)ns1 [Compound 74, 3-(5-cyclopropoxy-pyridin-2-yl)-N-(3-isopropylpyridin-2-yl)-1,2,4-thiadiazol-5-amine]	< 200	
CN(C)c1cccnc1Nc1nc(-c2ccc(OC3CC(F)(F)C3)cn2)ns1 [Compound 136, N2-(3-(5-(3,3-difluorocyclo-butoxy)pyridin-2-yl)-1,2,4-thiadiazol-5-yl)-N3,N3-dimethyl-pyridine-2,3-diamine]	500 to 5000	
CC(C)Oc1ccc(-c2nsc(Nc3ncccc3N(C)C(=O)C3CCC3)n2)nc1 [Compound 171, N-(2-(3-(5-isopropoxy-pyridin-2-yl)-1,2,4-thiadiazol-5-ylamino)pyridin-3-yl)-N-methylcyclo-butane-carboxamide]	< 200	
